Measured values reported in patent publication US4612329A, “Pharmaceutical alpha-aminoalkyl-alpha-alkylphenylacetonitriles” (Hokuriku Pharmaceutical Co., Ltd., priority 1984, dated 1986).

System: aconitine-induced arrhythmias
Assay: Anti-arrhythmic action (aconitine-induced arrhythmias in mice)
Format: in vivo, male ddY mice
Settings: 100 mg/kg orally 60 min prior to aconitine infusion, percent increase of aconitine needed to induce arrhythmias
Procedure: 2. Anti-arrhythmic action (aconitine-induced arrhythmias in mice)
Male ddY mice weighing about 30 g were anesthetized with pentobarbital sodium given intraperitoneally. Aconitine (1.32 μg/min) was continuously infused into a tail vein 15 min posterior to pentobarbital sodium administration. […] The amount of aconitine needed to induce arrhythmias was calculated from the time taken to the onset of the first premature ventricular systoles. The test compounds (100 mg/kg) were orally given 60 min prior to aconitine infusion. Their relative potencies to quinidine were compared by the percent increase of aconitine needed to induce arrhythmias.

First: COc1cc(C(C#N)(CCCNCCOc2ccccc2)C(C)C)cc(OC)c1OC.Cl (stereo not drawn) [Example 3, Alpha-isopropyl-alpha-[3-(2-phenoxyethylamino)propyl]-3,4,5-trimethoxyphenylacetonitrile Hydrochloride]
Second: COc1cc(C(C#N)(CCCNCCCOc2ccccc2N)C(C)C)cc(OC)c1OC (stereo not drawn) [Example 11, Alpha-isopropyl-alpha-[3-[N-[3-(2-aminophenoxy)propyl]amino]-propyl]-3,4,5-trimethoxyphenylacetonitrile]
The “Anti-arrhythmic action, relative potency (quinidine = 1)” value of the first is higher: 2.01 for the first, 1.51 for the second.

Going from `COc1ccccc1OCCCNCCC(C#N)(c1cc(OC)c(OC)c(OC)c1)C(C)C.Cl` (stereo not drawn) [Example 6, Alpha-isopropyl-alpha-[2-[N-[3-(2-methoxyphenoxy)propyl]-amino]ethyl]-3,4,5-trimethoxyphenylacetonitrile Hydrochloride] to `COc1ccccc1OCCNCCCC(C#N)(c1cc(OC)c(OC)c(OC)c1)C(C)C` (stereo not drawn) [Example 84, Alpha-isopropyl-alpha-[3-[N-[2-(2-methoxyphenoxy)ethyl]amino]propyl]-3,4,5-trimethoxyphenylacetonitrile], the “Anti-arrhythmic action, relative potency (quinidine = 1)” value rises from 2.02 to 2.52.

Compared with `COc1cccc(C(C#N)(CCCNCCOc2ccccc2OC)C(C)C)c1` (stereo not drawn) [Example 19], `COc1cccc(C(C#N)(CCCNCCCOc2ccccc2OC)C(C)C)c1` (stereo not drawn) [Example 25] is higher in “Anti-arrhythmic action, relative potency (quinidine = 1)” value: 2.28 for the first, 2.34 for the second.

Going from `COc1cccc(C(C#N)(CCCN(C)CCOc2ccccc2OC)C(C)C)c1` (stereo not drawn) [Example 20] to `COc1cccc(C(C#N)(CCCN(C)CCCOc2ccccc2OC)C(C)C)c1` (stereo not drawn) [Example 26], the “Anti-arrhythmic action, relative potency (quinidine = 1)” value rises from 1.20 to 1.60.

Compared with `COc1ccc(C(C#N)(CCCNCCCOc2ccccc2OC)C(C)C)cc1` (stereo not drawn) [Example 27], `COc1ccc(C(C#N)(CCCNCCCOc2ccccc2OC)C(C)C)cc1OC` (stereo not drawn) [Example 57] is higher in “Anti-arrhythmic action, relative potency (quinidine = 1)” value: 1.43 for the first, 1.52 for the second.

Going from `COc1ccc(C(C#N)(CCCN(C)CCCOc2ccccc2OC)C(C)C)cc1OC` (stereo not drawn) [Example 58] to `COc1ccccc1OCCCN(C)CCCC(C#N)(c1cc(OC)c(OC)c(OC)c1)C(C)C` (stereo not drawn) [Example 119], the “Anti-arrhythmic action, relative potency (quinidine = 1)” value rises from 1.64 to 2.24.

Going from `COc1ccccc1OCCN(C)CCCC(C#N)(c1cc(OC)c(OC)c(OC)c1)C(C)C` (stereo not drawn) [Example 85] to `COc1ccccc1OCCCNCCCC(C#N)(c1cc(OC)c(OC)c(OC)c1)C(C)C` (stereo not drawn) [Example 118, Alpha-isopropyl-alpha-[3-[N-[3-(2-methoxyphenoxy)propyl]amino]propyl]-3,4,5-trimethoxyphenylacetonitrile], the “Anti-arrhythmic action, relative potency (quinidine = 1)” value falls from 3.72 to 2.65.

Compared with `COc1ccccc1OCCNCCCC(C)(C#N)c1cc(OC)c(OC)c(OC)c1` (stereo not drawn) [Example 88], `CCCc1ccccc1OCCCNCCCC(C#N)(c1cc(OC)c(OC)c(OC)c1)C(C)C` (stereo not drawn) [Example 122] is lower in “Anti-arrhythmic action, relative potency (quinidine = 1)” value: 1.34 for the first, 1.21 for the second.

Going from `COc1cc(C(C#N)(CCCNCCCOc2ccc(N)cc2)C(C)C)cc(OC)c1OC` (stereo not drawn) [Example 126] to `COc1cc(C(C#N)(CCCNCCCOc2cccc(N)c2)C(C)C)cc(OC)c1OC` (stereo not drawn) [Example 128], the “Anti-arrhythmic action, relative potency (quinidine = 1)” value rises from 1.03 to 2.01.

Going from `COc1ccc(CCN(C)CCCC(C#N)(c2cc(OC)c(OC)c(OC)c2)C(C)C)cc1OC` (stereo not drawn) [Gallopamil, reference compound] to `CC(C)N(CCC(C(N)=O)(c1ccccc1)c1ccccn1)C(C)C` (stereo not drawn) [disopyramide, reference compound], the “Anti-arrhythmic action, relative potency (quinidine = 1)” value rises from 0.30 to 0.97.

System: Alpha-receptor
Assay: Alpha-receptor blocking action (thoracic aorta, noradrenaline)
Set-up: species or system male rabbit
Settings: rabbit thoracic aorta helical strip, Krebs-Henseleit, 37° C., compound applied 30 min prior
Procedure: 3. Alpha-receptor blocking action
The thoracic aorta was excised from male rabbit and helically cut. The helical strip was mounted in a tissue bath containing Krebs-Henseleit solution maintained at 37° C. A resting tension of 2.0 g was applied to the tissue. The change in tension, which was induced by cumulative application of noradrenaline, was isometrically measured by the FD-pickup. The tissue bath solution was bubbled with a mixture of 95% O2 -5% CO2. The test compounds were applied 30 min prior to cumulative application of noradrenaline. The degree of alpha-blocking action was expressed as the pA2 value.

`COc1ccc(C(C#N)(CCCNCCOc2ccccc2OC)C(C)C)cc1OC.O=C(O)/C=C\C(=O)O` (stereo not drawn) [Example 4, Alpha-isopropyl-alpha-[3-[N-[2-(2-methoxyphenoxy)ethyl]amino]-propyl]-3,4-dimethoxyphenylacetonitrile Maleate] and `COc1ccccc1OCCNCCCC(C#N)(c1cc(OC)c(OC)c(OC)c1)C(C)C` (stereo not drawn) [Example 84, Alpha-isopropyl-alpha-[3-[N-[2-(2-methoxyphenoxy)ethyl]amino]propyl]-3,4,5-trimethoxyphenylacetonitrile] are within 0.2 log units of each other in “Alpha-blocking action, pA2 value”: 8.25 for the first, 8.42 for the second.

Going from `COc1ccc(C(C#N)(CCCNCCOc2ccccc2OC)C(C)C)cc1` (stereo not drawn) [Example 21] to `COc1ccccc1OCCNCCCC(C#N)(CC(C)C)c1cc(OC)c(OC)c(OC)c1` (stereo not drawn) [Example 93, Alpha-isobutyl-alpha-[3-[N-[2-(2-methoxyphenoxy)ethyl]amino]propyl]-3,4,5-trimethoxyphenylacetonitrile], the “Alpha-blocking action, pA2 value” rises from 8.02 to 8.67.

Compared with `COc1ccccc1OCCNCCCC(C)(C#N)c1cc(OC)c(OC)c(OC)c1` (stereo not drawn) [Example 88], `CCC(C#N)(CCCNCCOc1ccccc1OC)c1cc(OC)c(OC)c(OC)c1` (stereo not drawn) [Example 90, Alpha-ethyl-alpha-[3-[N-[2-(2-methoxyphenoxy)ethyl]amino]propyl]-3,4,5-trimethoxyphenylacetonitrile] is higher in “Alpha-blocking action, pA2 value”: 8.40 for the first, 8.79 for the second.

`CCCC(C#N)(CCCNCCOc1ccccc1OC)c1cc(OC)c(OC)c(OC)c1` (stereo not drawn) [Example 91] and `CCCCC(C#N)(CCCNCCOc1ccccc1OC)c1cc(OC)c(OC)c(OC)c1` (stereo not drawn) [Example 92] are within 0.2 log units of each other in “Alpha-blocking action, pA2 value”: 8.46 for the first, 8.57 for the second.

Compared with `COc1ccc(CCN(C)CCCC(C#N)(c2cc(OC)c(OC)c(OC)c2)C(C)C)cc1OC` (stereo not drawn) [Gallopamil, reference compound], `COc1ccc(CCN(C)CCCC(C#N)(c2ccc(OC)c(OC)c2)C(C)C)cc1OC` (stereo not drawn) [Verapamil, reference compound] is higher in “Alpha-blocking action, pA2 value”: 6.11 for the first, 6.41 for the second.
